For two compounds, EC50 and CC50 results are on record in patent publication US5247119A, “Phenylacetonitrilehydroxyalkylaminoalkyl-ortho-substituted aryl compounds as immunosuppressives” (G. D. Searle & Co., priority 1992, dated 1993).

Holding throughout (type): cell-based, female Balb/c mice
Data set [1] concerns conA-stimulated T cell proliferation (spleen cells). In words: Assay A: Suppression of Murine Mitogen-Stimulated Proliferation. The note with it: conA 1 ug/ml, 3 days culture, MTT readout, n = 2. From the text: Assay A: Suppression of Murine Mitogen-Stimulated Proliferation
It is known that lymphocyte activation can be polyclonally stimulated by plant lectins and other mitogenic substances that induce blast transformation and mitosis. The plant lectin concanavalin A (conA) preferentially induces activation and proliferation of T lymphocytes. Exposure of T cells to conA results in polyclonal T cell activation, and this response can be used to determine the in vitro index of immunomodulatory effects of test compounds on pan-T cell activation. Spleen cells were harvested aseptically from female Balb/c mice, and cells were extruded by compression in phosphate buffered saline (pH 7.0). […] The remaining cells were pelleted, resuspended in medium, filtered through a cotton plug to remove debris, and the leukocytes were then counted. […] Inhibition of conA-stimulated T cell proliferation was measured using a colorimetric indicator of cell growth and proliferation, MTT [3-(4,5-dimethylthiazol-2-yl)-2 diphenyltetrazolium bromide; 100 μl of a 1 mg/ml solution per well, SIGMA] […] Light absorbance was measured at a test wavelength of 570 nm and a reference wavelength of 650 nm using a spectrophotometer. […]

Data set [2] can be described thus: in vitro. Particulars: spleen cell leukocytes. As for the experimental part: (§1) Measurement of drug-induced cellular cytotoxicity was determined after 48 hours of cell culture with and without conA and with and without test compound or vehicle control. All cell preparations and assay conditions were identical to those described in Assay A. A fluorescence based assay was used to measure cell viability using the carboxyfluorescein derivative 2'-7'-biscarboxyethyl-5 (6)-carboxyfluorecein (BCECF) as a vital dye [Leeder, J. S., Dosch, H. M., Harper, P. A., Lam, P. and S. P. Spielberg, 1989. Anal. Biochem. 177, 364-372]. The membrane permeant, nonfluorescent ester derivitive, BCECF-AM (100 μl of a 2 ug/ml solution in phosphate buffered saline, pH 7.0, Molecular Probes, Eugene, OR) was added to each cell culture and incubated at 37° C. for 30 min. […] The cells were washed and concentrated on the well membrane under low vacuum, and cell associated fluorescence was measured by front surface fluorometry (485/535 nM) in the Screen Machine (Baxter) using an automated protocol. Probit analysis was used to determine viability as a percentage of relative fluorescence units (RFU) compared to control (cells and medium). The dose of test compound that induced at least 50% cellular toxicity, i.e., a 50% reduction in RFU compared to unstimulated control cells, was recorded.

Data set [3] has as its system spleen cell leukocytes (cell viability). Nature of the data set: in vitro. Particulars: 48 h. As for the experimental part: as §1

For orientation: EC50 means the concentration that produces a half-maximal response. One may read the CC50 as the concentration at which the toxic effect on the cells reaches its halfway point. As to `COc1ccc(CCN(C)CC(O)CC(C#N)(c2ccc(OC)c(OC)c2)C(C)C)cc1OC` (racemic) [Example 1-A, α-[3-[[2-(3,4-dimethoxyphenyl)ethyl]methylamino]-2-hydroxypropyl]-3,4-dimethoxy-α-(1-methylethyl)benzeneacetonitrile], the EC50 in data set [1] (Mus musculus, T-cell, 72 h) amounted to 12.9 ± 5.75 µM. The compound also had a 50% cytotoxic concentration (CC50) at 48 h in data set [2] of 60 µM.
As to `COc1ccc(CCN(C)CC(O)CC(C#N)(c2ccc(OC)c(OC)c2)C(C)C)cc1OC` (racemic) [Example 1-B, α-[3-[[2-(3,4-dimethoxyphenyl)ethyl]methylamino]-2-hydroxypropyl]-3,4-dimethoxy-α-(1-methylethyl)benzeneacetonitrile], the EC50 in data set [1] was 17.9 ± 8.16 µM. The compound also had a CC50 in data set [3] of 60 µM.
